What was measured:
Distal colitis [1] = experiment: DNBS-induced distal colitis (inflammatory bowel disease model); type: in vivo, male Wistar rats; settings: for Adhesions between the colon and other organs / Colonic ulceration: observed at sacrifice day 7 or day 8, dosing as for each substance; for diarrhea: recorded daily, dosing as for each substance (AET: 2 mg); for Moderate acute inflammation, number of animals / Severe acute inflammation, number of animals: measured 7 days after DNBS challenge; for Moderate acute inflammation, number of animals / Severe acute inflammation, number of animals / Severe chronic inflammation, number of animals: groups of 10; for Severe chronic inflammation, number of animals: measured 14 days after DNBS challenge
Distal colitis [2] = experiment: TNBS-induced distal colitis; type: in vivo, male Sprague Dawley rats; settings: for frequency of moderate to severe lesions and their severity compared with negative control (vehicle) and reference control: based on occurrence at multiple colonic levels
Method: In another protocol formula 1 compounds were used in a similar animal model. Groups of 10 male Sprague Dawley rats (250-300 grams) were fasted for 24 hours before 2,4,6-trinitrobenzene sulfonic acid (TNBS) or saline challenge. This model presents a severe challenge to the animal's immune system. On Day 0, the rats were lightly anesthetized and a catheter inserted rectally into the colon such that the tip was 8 cm proximal to the anus. Distal colitis was induced by intra-colonic instillation of 0.5 mL of an ethanolic solution of TNBS (60 mg/mL ethanol 50% in water). The test substance, 7-oxodehydroepiandrosterone 20 mg/mL in vehicle or vehicle control was administered by subcutaneous injection (0.1 mL/injection) once a day for 6 days, the first dose being given 30 minutes after TNBS challenge. Sulfasalazine (30 mg/mL in 2% Tween 80 in distilled water) or vehicle control was administered orally (PO) once a day (10mL/kg/day) for 7 days, the first two doses beginning 24 hours and 2 hours before DNBS challenge. Signs of diarrhea were recorded daily by examining the anal area. Animals were fasted for 24 hours prior to sacrifice on day 14 and the colon was removed and weighed. After gross observations of colonic tissues, 3 samples were taken from regions approximately 1, 3, and 8 cm proximal to the anus. If gross ulcers or inflammation were present, at least one sample was taken from the affected region. Before removal of the colon, signs of adhesion between the colon and other organs were recorded. […] Body weight, colon-to-body-weight ratio, and damage scores were assessed. Visible damage was scored on a 1-5 scale as follows: 0 = No damage; 1 = Localized hyperemia but no ulcers; 2= linear ulcers with no significant inflammation; 3 = Linear ulcers with inflammation at one site; 4 = Two or more sites of ulceration and/or inflammation; 5 = Two or more major sites of ulceration and inflammation or one major site of ulceration and inflammation extending more than 1 cm along the length of the colon. […]

[3] = system: Experimental allergic encephalomyelitis (EAE); experiment: Experimental allergic encephalomyelitis induced with PLP-139-151 peptide/CFA; type: in vivo, Female SJL mice; settings: for onset of EAE: 3.0 mg s.c. daily for 33 days starting 7 days before peptide; for peak clinical score: reduced from 5.2 ± 0.6; for PLP-139-151 specific T cell proliferation responses: T cells from treated mice; for numbers of TNF-α producing cells in the CNS: treated mice
Method: Example 50. Treatment of neurodegenerative conditions. Experimental allergic encephalomyelitis (EAE), is demyelinating disease of the central nervous system with many pathological and clinical similarities with multiple sclerosis (MS). EAE is thus a recognized animal model for human autoimmune conditions such as MS. Formula 1 compounds 16α-fluoroandrost-5-ene-17-one, 3β,7β,17β,-trihydroxyandrost-5-ene and 16α-bromoepiandrosterone were tested for their capacity to delay the onset of EAE or to reduce its symptoms. Female SJL mice (5 animals per group) were immunized with 150 to 200 µg of PLP-139-151 peptide/CFA to induce EAE. Starting 7 days before injection of the peptide, the animals were given daily injections (s.c.) of the compounds (3.0 mg) in 0.1 mL vehicle, or vehicle alone for 33 days. The vehicle consisted of a suspension of the formula 1 compound in saline and carboxymethylcellulose. […] A lower dose (0.3 mg/mouse) or other routes (p.o.) of administration had less effect. […] These compounds limited the production of autoimmune Th-1 associated cytokines, which is consistent with restoration of a more normal Th-1/Th-2 immune balance and/or with reduction of inflammation in this model.

[4] = system: delayed type hypersensitivity (DTH); experiment: Delayed type hypersensitivity to oxazolone (ear thickness); type: in vivo, female BALB/cByJ mice; settings: for differential ear thickness: 24 hours after oxazolone challenge, vehicle alone 0.225 mm
[5] = s.c. 20 mg/mL formulation once a day, first dose 30 minutes after DNBS, relative to vehicle-treated group / controls
[6] = day 7 (acute inflammation) after DNBS challenge
[7] = day 14 after DNBS challenge (chronic inflammation)

C[C@]12CC[C@H](O)CC1=CC(=O)[C@@H]1[C@@H]2CC[C@]2(C)C(=O)CC[C@@H]12 [7-oxodehydroepiandrosterone, 3β-hydroxyandrost-5-ene-7,17-dione]
decrease of net colon-to-body weight ratio (Distal colitis [1]; 0.1 mL s.c. of 2 mg/mL formulation once a day for 6 days, first dose 30 minutes after DNBS, relative to vehicle-treated group): 19% | Adhesions between the colon and other organs (Distal colitis [1]): absent in all three tested animals | Colonic ulceration (Distal colitis [1]): 1/3 | diarrhea (Distal colitis [1]): All animals had diarrhea | decrease of net colon-to-body weight ratio (Distal colitis [1]; [5]): 14% | effect on inflammation (histopathological data) (Distal colitis [2]; 20 mg/mL, 0.1 mL s.c. once a day for 6 days): exacerbated the inflammation

C[C@]12CCCCC1=CC[C@@H]1[C@@H]2CC[C@]2(C)C(=O)[C@H](F)C[C@@H]12 [16α-fluoroandrost-5-ene-17-one]
reduction of cumulative disease index ([3]; 3.0 mg s.c. daily for 33 days): > 60% | relapses ([3]; 3.0 mg s.c. daily for 33 days): prevented or significantly attenuated | onset of EAE [3]: significantly delayed | peak clinical score ([3]; 3.0 mg s.c. daily for 33 days): 2.8 ± 1.8 | PLP-139-151 specific T cell proliferation responses [3]: significantly reduced | numbers of TNF-α producing cells in the CNS [3]: reduced numbers

C[C@]12CC[C@H]3[C@@H]([C@@H](O)C=C4C[C@@H](O)CC[C@@]43C)[C@@H]1CC[C@@H]2O [AET, 3β,7β,17β-trihydroxyandrost-5-ene]
animals with colonic ulcerations relative to untreated animals (Distal colitis [1]; 2 mg, N=9, pooled data from two studies): 33% | animals showing ulcers (chronic ulceration) (Distal colitis [1]; 14 days after challenge, initiation of treatment delayed until 2 days after DNBS challenge): 5 of 10 | severe ulceration (Distal colitis [1]; [6]): 2 of 10 | severe ulceration (Distal colitis [1]; [7]): 1 of 10 | net colon-to-body weight ratio, ulcers and diarrhea (Distal colitis [1]; four subsequent studies): variably reduced | Moderate acute inflammation, number of animals (Distal colitis [1]): 6 animals | Severe acute inflammation, number of animals (Distal colitis [1]): 4 animals | Severe chronic inflammation, number of animals (Distal colitis [1]): 3 animals | Adhesions between the colon and other organs (Distal colitis [1]): absent | diarrhea (Distal colitis [1]): no diarrhea | decrease of net colon-to-body weight ratio (Distal colitis [1]; s.c. 0.2 mg/day for 5 or 6 days, first dose 30 minutes post-DNBS, relative to controls): 15% | decrease of net colon-to-body weight ratio (Distal colitis [1]; s.c. 2.0 mg/day for 5 or 6 days, first dose 30 minutes post-DNBS, relative to controls): 21% | reduction of cumulative disease index ([3]; 3.0 mg s.c. daily for 33 days): > 60% | relapses ([3]; 3.0 mg s.c. daily for 33 days): prevented or significantly attenuated | onset of EAE [3]: significantly delayed | peak clinical score ([3]; 3.0 mg s.c. daily for 33 days): 2.8 ± 1.8 | PLP-139-151 specific T cell proliferation responses [3]: significantly reduced | numbers of TNF-α producing cells in the CNS [3]: reduced numbers | enhancement of the DTH response ([4]; s.c. 2 mg/day daily for 8 days, first dose 24 hours before sensitization, last dose 24 hours prior to challenge): 23% | reduction in the DTH response ([4]; s.c. 2 mg/day, administered 24 hours before challenge or at challenge): 22-24%

C[C@]12CC[C@H](O)C[C@@H]1CC[C@@H]1[C@@H]2CC[C@]2(C)C(=O)[C@H](Br)C[C@@H]12 [BrEA, 16α-bromo-3β-hydroxy-5α-androstane-17-one]
decrease of net colon-to-body weight ratio (Distal colitis [1]; s.c. 100 mg/mL formulation, relative to controls): 21% | effect on EAE ([3]; 3.0 mg s.c. daily for 33 days): not significant | frequency of moderate to severe lesions and their severity compared with negative control (vehicle) and reference control (Distal colitis [2]): appeared to be similar

O=P1(N(CCCl)CCCl)NCCCO1 (centres unmarked) [cyclophosphamide, reference compound]
differential ear thickness [4]: 0.092 mm

C[C@]12CC[C@H](O)CC1=CC[C@@H]1[C@@H]2CC[C@]2(C)C(=O)CC[C@@H]12 [dehydroepiandrosterone, reference compound]
severe ulceration (Distal colitis [1]; [6]): 10 of 10 | severe ulceration (Distal colitis [1]; [7]): 0 of 10 | Moderate acute inflammation, number of animals (Distal colitis [1]): 0 animals | Severe acute inflammation, number of animals (Distal colitis [1]): 10 animals | Severe chronic inflammation, number of animals (Distal colitis [1]): 3 animals | decrease of net colon-to-body weight ratio (Distal colitis [1]; [5]): 3% | frequency of moderate to severe lesions and their severity compared with negative control (vehicle) and reference control (Distal colitis [2]): appeared to be similar

C[C@@H]1C[C@H]2[C@@H]3CCC4=CC(=O)C=C[C@]4(C)[C@@]3(F)[C@@H](O)C[C@]2(C)[C@@]1(O)C(=O)CO [dexamethasone, reference compound]
differential ear thickness [4]: 0.144 mm

O=C(O)c1cc(/N=N/c2ccc(S(=O)(=O)Nc3ccccn3)cc2)ccc1O [sulfasalazine, reference compound]
change in net colon-to-body weight (BW) ratio (Distal colitis [1]; PO 30 mg/mL, 10 mL/kg/day once a day for 7 days, relative to EE-1 treated group): -33% | severe ulceration (Distal colitis [1]; [6]): 3 of 10 | severe ulceration (Distal colitis [1]; [7]): 4 of 10 | Moderate acute inflammation, number of animals (Distal colitis [1]): 6 animals | Severe acute inflammation, number of animals (Distal colitis [1]): 3 animals | Severe chronic inflammation, number of animals (Distal colitis [1]): 2 animals | Adhesions between the colon and other organs (Distal colitis [1]): no animals | Colonic ulceration (Distal colitis [1]): no animals | diarrhea (Distal colitis [1]): all animals
